For one assay, the target named is T1, CCK2 receptor (Homo sapiens, UniProt P32239).
T1 construct: analyzed for ZFP expression as well as CCK2R induction upon addition of doxycycline to the culture medium; endogenous in cells
T1 sequence (P32239 1-447): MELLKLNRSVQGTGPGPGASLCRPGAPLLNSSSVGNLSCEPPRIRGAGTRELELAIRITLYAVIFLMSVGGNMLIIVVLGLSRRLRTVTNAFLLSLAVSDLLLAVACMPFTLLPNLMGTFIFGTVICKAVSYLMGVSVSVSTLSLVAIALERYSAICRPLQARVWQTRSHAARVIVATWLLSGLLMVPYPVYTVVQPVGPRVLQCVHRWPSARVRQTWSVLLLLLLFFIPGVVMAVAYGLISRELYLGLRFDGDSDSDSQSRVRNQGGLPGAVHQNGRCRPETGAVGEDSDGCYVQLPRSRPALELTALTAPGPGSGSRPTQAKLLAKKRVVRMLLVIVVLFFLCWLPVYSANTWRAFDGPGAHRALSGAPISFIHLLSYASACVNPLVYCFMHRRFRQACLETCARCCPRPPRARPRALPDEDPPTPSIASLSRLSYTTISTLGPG
Description: CCK2 binding assay ([125I]-BH-CCK-8S displacement, HEKZFP membranes). The note with it: membranes of doxycycline-induced HEKZFP cells, 20 pM [125I]-BH-CCK-8S, 60 min at 21±3° C.; for Ki: read-out: CCK2 pKi (converted).

A further assay has as its target T2, CCK-1 receptor (Homo sapiens, UniProt P32238).
T2 construct: expressed in transfected cells; host or cells: CHO-K1
T2 sequence (P32238 1-428): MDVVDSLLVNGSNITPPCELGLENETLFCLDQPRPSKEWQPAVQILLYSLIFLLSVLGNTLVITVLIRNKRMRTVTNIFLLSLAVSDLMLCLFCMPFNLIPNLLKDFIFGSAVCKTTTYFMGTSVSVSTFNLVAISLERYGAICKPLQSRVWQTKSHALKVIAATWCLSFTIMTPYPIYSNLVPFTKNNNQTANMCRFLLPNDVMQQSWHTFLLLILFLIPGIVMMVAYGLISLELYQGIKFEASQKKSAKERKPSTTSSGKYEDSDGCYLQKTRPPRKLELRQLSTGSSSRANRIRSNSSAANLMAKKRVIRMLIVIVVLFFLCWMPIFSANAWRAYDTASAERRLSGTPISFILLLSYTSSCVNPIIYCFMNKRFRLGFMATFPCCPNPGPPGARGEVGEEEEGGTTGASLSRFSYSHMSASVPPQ
Description: CCK1 binding assay ([125I]-BH-CCK-8S displacement, CHO-K1 membranes). As to conditions: membranes of CHO-K1 cells stably transfected with the CCK-1 receptor, 20 pM [125I]-BH-CCK-8S, 0.3 μM PD-134,308 present, 60 min at 21±3° C.; for Ki: read-out: CCK1 pKi (converted). Put shortly: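 Membranes from CHO-K1 cells stably expressing CCK-1 incubated 1 h at 21±3° C with 20 pM [125I]-BH-CCK-8S in HEPES buffer pH 7.2 containing 0.3 μM PD-134,308 to block CCK-2. Bound radioactivity read by gamma counting after filtration. pKi derived via Cheng-Prusoff, with specific binding defined using 2-NAP.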

Molecules are shown by their SMILES.

This is an account of results in patent US7855292B2, “Sulfonamide compounds” (Janssen Pharmaceutica NV, priority 2004, dated 2010).

For the compound `O=C(N[C@@H](Cc1ccc(Cl)c(Br)c1)C(=O)O)c1ccc(Cl)cc1NS(=O)(=O)c1cccc2nccnc12` [Example 146, (S)-3-(3-Bromo-4-chloro-phenyl)-2-[4-chloro-2-(quinoxaline-5-sulfonylamino)-benzoylamino]-propionic acid], the Ki on CCK2 receptor is 25.1 nM; on CCK-1 receptor, 251 nM.
On the same counts, the results for `O=C(N[C@@H](Cc1ccc(Cl)c(Br)c1)C(=O)O)c1cc(Cl)c(Cl)cc1NS(=O)(=O)c1cccc2nsnc12` [Example 147, (S)-2-[2-(Benzo[1,2,5]thiadiazole-4-sulfonylamino)-4,5-dichloro-benzoylamino]-3-(3-bromo-4-chloro-phenyl)-propionic acid] are 39.8 nM and 158 nM.
On the same counts, the results for `O=C(N[C@@H](Cc1ccc(Cl)c(Br)c1)C(=O)O)c1cc(Cl)c(Cl)cc1NS(=O)(=O)c1cccc2nccnc12` [Example 148, (S)-3-(3-Bromo-4-chloro-phenyl)-2-[4,5-dichloro-2-(quinoxaline-5-sulfonylamino)-benzoylamino]-propionic acid] are 63.1 nM and 251 nM.
On the same counts, the results for `COC(=O)[C@H](Cc1ccc(F)c(Br)c1)NC(=O)c1ccc(Cl)cc1NS(=O)(=O)c1cccc2nsnc12` [Example 149, (S)-2-[2-(Benzo[1,2,5]thiadiazole-4-sulfonylamino)-4-chloro-benzoylamino]-3-(3-bromo-4-fluoro-phenyl)-propionic acid methyl ester] are 200 nM and 200 nM.
For the compound `COC(=O)[C@H](Cc1ccc(F)c(Br)c1)NC(=O)c1cc(Cl)c(Cl)cc1NS(=O)(=O)c1cccc2nsnc12` [Example 150, (S)-2-[2-(Benzo[1,2,5]thiadiazole-4-sulfonylamino)-4,5-dichloro-benzoylamino]-3-(3-bromo-4-fluoro-phenyl)-propionic acid methyl ester], the Ki was 251 nM on CCK2 receptor and 79.4 nM at CCK-1 receptor.
For `COC(=O)[C@H](Cc1ccc(F)c(Br)c1)NC(=O)c1ccc(Br)cc1NS(=O)(=O)c1cccc2nccnc12` [Example 151, (S)-3-(3-Bromo-4-fluoro-phenyl)-2-[4-bromo-2-(quinoxaline-5-sulfonylamino)-benzoylamino]-propionic acid methyl ester], in that order: 126 nM and 794 nM.
For `COC(=O)[C@H](Cc1ccc(F)c(Br)c1)NC(=O)c1ccc(Cl)cc1NS(=O)(=O)c1cccc2nccnc12` [Example 152, (S)-3-(3-Bromo-4-fluoro-phenyl)-2-[4-chloro-2-(quinoxaline-5-sulfonylamino)-benzoylamino]-propionic acid methyl ester], in that order: 158 nM and 1000 nM.
For the compound `COC(=O)[C@H](Cc1ccc(F)c(Br)c1)NC(=O)c1cc(Cl)c(Cl)cc1NS(=O)(=O)c1cccc2nccnc12` [Example 153, (S)-3-(3-Bromo-4-fluoro-phenyl)-2-[4,5-dichloro-2-(quinoxaline-5-sulfonylamino)-benzoylamino]-propionic acid methyl ester], on CCK2 receptor, the “CCK2 pKi” value stood at 6.6. Also, the “CCK1 pKi” value on CCK-1 receptor is listed as 6.7.
As for `COC(=O)[C@H](Cc1ccc(Cl)c(Cl)c1)NC(=O)c1ccc(I)cc1NS(=O)(=O)c1cccc2nsnc12` [Example 154, (S)-2-[2-(Benzo[1,2,5]thiadiazole-4-sulfonylamino)-4-iodo-benzoylamino]-3-(3,4-dichloro-phenyl)-propionic acid methyl ester], the figures for the Ki on CCK2 receptor and at CCK-1 receptor were 251 nM and 158 nM, respectively.
For `O=C(N[C@@H](Cc1ccc(Cl)c(Br)c1)C(=O)O)c1ccc(Br)cc1NS(=O)(=O)c1cccc2nccnc12` [Example 155, (S)-3-(3-Bromo-4-chloro-phenyl)-2-[4-bromo-2-(quinoxaline-5-sulfonylamino)-benzoylamino]-propionic acid], the “CCK2 pKi” value at CCK2 receptor was 8.0. Moreover, the “CCK1 pKi” value on CCK-1 receptor stood at 7.0.
On the same counts, the results for `O=C(N[C@@H](Cc1ccc(F)c(Br)c1)C(=O)O)c1ccc(Cl)cc1NS(=O)(=O)c1cccc2nsnc12` [Example 156, (S)-2-[2-(Benzo[1,2,5]thiadiazole-4-sulfonylamino)-4-chloro-benzoylamino]-3-(3-bromo-4-fluoro-phenyl)-propionic acid] are 8.0 and 6.6.
For `O=C(N[C@@H](Cc1ccc(F)c(Br)c1)C(=O)O)c1ccc(Br)cc1NS(=O)(=O)c1cccc2nccnc12` [Example 158, (S)-3-(3-Bromo-4-fluoro-phenyl)-2-[4-bromo-2-(quinoxaline-5-sulfonylamino)-benzoylamino]-propionic acid], at CCK2 receptor, the “CCK2 pKi” value is given as 8.3. In addition, the “CCK1 pKi” value at CCK-1 receptor was determined as 6.5.
As for `O=C(N[C@@H](Cc1ccc(F)c(Br)c1)C(=O)O)c1ccc(Cl)cc1NS(=O)(=O)c1cccc2nccnc12` [Example 159, (S)-3-(3-Bromo-4-fluoro-phenyl)-2-[4-chloro-2-(quinoxaline-5-sulfonylamino)-benzoylamino]-propionic acid], the “CCK2 pKi” value on CCK2 receptor is 8.0. Further, on CCK-1 receptor, the “CCK1 pKi” value amounted to 6.4.
On to `O=C(N[C@@H](Cc1ccc(F)c(Br)c1)C(=O)O)c1cc(Cl)c(Cl)cc1NS(=O)(=O)c1cccc2nccnc12` [Example 160, (S)-3-(3-Bromo-4-fluoro-phenyl)-2-[4,5-dichloro-2-(quinoxaline-5-sulfonylamino)-benzoylamino]-propionic acid], for which the “CCK2 pKi” value on CCK2 receptor was determined as 8.2. Also, the “CCK1 pKi” value at CCK-1 receptor is listed as 6.8.
For `O=C(N[C@@H](Cc1ccc(Cl)c(Br)c1)C(=O)O)c1ccc(Br)cc1NS(=O)(=O)c1cccc2nsnc12` [Example 161, (S)-2-[2-(Benzo[1,2,5]thiadiazole-4-sulfonylamino)-4-bromo-benzoylamino]-3-(3-bromo-4-chloro-phenyl)-propionic acid], in that order: 7.9 and 6.9.
For `O=C(N[C@@H](Cc1ccc(F)c(Br)c1)C(=O)O)c1ccc(Br)cc1NS(=O)(=O)c1cccc2nsnc12` [Example 162, (S)-2-[2-(Benzo[1,2,5]thiadiazole-4-sulfonylamino)-4-bromo-benzoylamino]-3-(3-bromo-4-fluoro-phenyl)-propionic acid], in that order: 8.2 and 6.6.
Regarding `CCOC(=O)[C@H](Cc1ccc(F)c(Br)c1)NC(=O)c1cc(Cl)c(Cl)cc1NS(=O)(=O)c1cccc2nsnc12` [Example 163, (S)-2-[2-(Benzo[1,2,5]thiadiazole-4-sulfonylamino)-4,5-dichloro-benzoylamino]-3-(3-bromo-4-fluoro-phenyl)-propionic acid ethyl ester], the results for the Ki at CCK2 receptor and on CCK-1 receptor were 398 nM and 126 nM, respectively.
